Experiment in all cases: growth of human tumour cells (NCI), 48 h
Experiment [1] concerns ACHN renal.
Experiment [2] deals with HL-60(TB) leukemia.
Experiment [3] relates to HOP-62 NSCLC.
The test system of experiment [4] is K-562 leukemia.
For experiment [5], the system named is MALME-3M melanoma.
Experiment [6] has as its system MDA-MB-231 breast.
Experiment [7] relates to PC-3 prostate.
Experiment [8] has as its system RXF 393 renal.
Experiment [9] has as its system SK-OV-3 ovarian.
Experiment [10] deals with SW-620 colon.
For experiment [11], the system named is UACC-62 melanoma.

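Cells were grown in 96-well plates and exposed to each compound for 48 hours at five concentrations; endpoints were interpolated linearly between bracketing concentrations, or set to the highest concentration if not reached. Definition used: TGI = concentration required for complete inhibition of growth.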

For `NC(CC(O)(c1ccccc1)c1ccccc1)c1ccccc1S` (stereo not given), the TGI in experiment [1] stood at 27.3 µM; in experiment [2], 59.5 µM; in experiment [3] it was 30.2 µM; in experiment [4] it was 37.2 µM; in [5], 54.8 µM; in [6], 33.3 µM. Moreover, the TGI in [7] stood at 24.2 µM; in [8], 31 µM; in experiment [9], 37.6 µM; in [10], 36.4 µM; in experiment [11], 32 µM.
As to `COC1(c2cccs2)c2ccccc2C(OC)(c2cccs2)c2ccccc21` (stereo not given), the TGI in experiment [1], in experiment [2], in [3], in experiment [4], in [5] and in experiment [6] was above 100 µM in each case. Further, the TGI in experiment [7], in [8], in [9], in [10] and in experiment [11] was above 100 µM each time.
As to `Cc1cc(N2CCCC2)c([N+](=O)[O-])cc1[N+](=O)[O-]`, the TGI in experiment [1], in experiment [2], in experiment [4], in [5], in experiment [6] and in [7] was above 100 µM throughout. The TGI in experiment [8], in experiment [9], in [10] and in [11] was above 100 µM each time.
With `COC(=O)C1=CON2C3CC4CC(C3)CC(C4)C12C` (stereo not given), the TGI in experiment [1], in experiment [2], in experiment [3], in [4], in experiment [5] and in [6] was above 100 µM each time. Further, the TGI in experiment [7], in [8], in [9], in experiment [10] and in experiment [11] was above 100 µM in each case.
As for `c1csc(-c2ccsc2-c2ccsc2)c1`, the TGI in experiment [1], in experiment [2], in experiment [3], in experiment [4], in experiment [6] and in [7] was above 100 µM throughout. Also, the TGI in experiment [8] is 76.3 µM; in [9], above 100 µM; in experiment [10], above 100 µM; in [11], above 100 µM.
`COc1cc2c(cc1OC)[C@@](C)(C(O)C(O)C(C)(C)O)NCC2` (stereo not given in full): the TGI in experiment [1], in experiment [2], in experiment [3], in experiment [4], in experiment [5] and in experiment [6] was above 100 µM throughout. Besides, the TGI in [7], in experiment [8], in [9] and in experiment [11] was above 100 µM each time.
Take `O=[N+]([O-])c1ccc(O)c(/C=N/c2nc(-c3ccccc3)cs2)c1`: the TGI in experiment [1] is above 100 µM; in experiment [2] it was above 100 µM; in experiment [3], above 90.5 µM; in experiment [4], 41.9 µM; in experiment [5], 74.6 µM; in experiment [6], above 100 µM. Besides, the TGI in experiment [7] was above 100 µM; in [8], 45.1 µM; in experiment [9] it was 89.5 µM; in experiment [10], above 100 µM; in experiment [11], 30.8 µM.
`O=[N+]([O-])c1cccc(Cl)c1Oc1ccc(S(=O)(=O)/N=C(\NO)Nc2ccc(Cl)cc2)cc1`: the TGI is 27.5 µM in [1]; 16.5 µM in experiment [2]; 45.4 µM in experiment [3]; 33.3 µM in experiment [4]; 31.2 µM in [5]; 47.6 µM in experiment [6]. In addition, the TGI amounted to 24.2 µM in experiment [7]; 30.9 µM in experiment [8]; 31.8 µM in experiment [9]; 30.3 µM in experiment [10]; 25.5 µM in [11].
Take `CCCCCN(CCCCC)CC(C)(C)C(O)c1ccc(OC)c2ccccc12` (stereo not given): the TGI in experiment [1] is 27.2 µM; in experiment [2] it was 20.7 µM; in [3], above 100 µM; in experiment [4], 25 µM; in experiment [5], 29.9 µM; in experiment [6], 31.2 µM. Further, the TGI was 26.4 µM in [7], 24.1 µM in [8], 27.3 µM in experiment [10] and 25.6 µM in [11].
Regarding `O=C(O)CNC(=O)c1ccc2cc(C(=O)N3CC(CCl)c4ccc([N+](=O)[O-])cc43)[nH]c2c1` (stereo not given), the TGI in [1], in experiment [2], in [6], in experiment [7], in experiment [8] and in experiment [9] was above 100 µM each time. In addition, the TGI in experiment [10] and in experiment [11] was above 100 µM throughout.
Regarding `COC([C@@H](OC(=O)c1ccccc1)[C@H](OC(=O)c1ccccc1)C(O)COC(=O)c1ccccc1)n1cc(C)c(=O)[nH]c1=O` (stereo not given in full), the TGI in experiment [1] was above 100 µM; in experiment [3] it was above 100 µM; in experiment [4] it was above 100 µM; in [5] it was 91.7 µM; in [6] it was above 100 µM; in [7] it was above 100 µM. In addition, the TGI in experiment [8] is 43.1 µM; in experiment [9], above 100 µM; in experiment [10], above 100 µM; in [11], 56.3 µM.
Consider `NC(=Nc1ccccc1)c1ccccc1N`, for which the TGI in experiment [1], in experiment [2], in [3], in experiment [4], in [6] and in [7] was above 100 µM throughout. In addition, the TGI in experiment [8], in experiment [9], in [10] and in experiment [11] was above 100 µM throughout.
Take `CCCN(CCC)C1CCc2c(ccc3cc[nH]c23)C1` (stereo not given): the TGI in [1], in experiment [3], in [4], in experiment [5], in [6] and in [7] was above 100 µM throughout. Moreover, the TGI in experiment [8], in experiment [9], in [10] and in experiment [11] was above 100 µM throughout.
`O=C(c1ccc(O)c([N+](=O)[O-])c1)c1ccc(O)c([N+](=O)[O-])c1`: the TGI in [1] was above 100 µM; in [3] it was above 100 µM; in [4], above 100 µM; in experiment [5], 98.6 µM; in [6], above 100 µM; in experiment [7], above 100 µM. Moreover, the TGI in [8], in [9], in experiment [10] and in experiment [11] was above 100 µM in each case.
For the compound `COCC12CCC(OC)C34C5CC6(O)C(OC)CC(OC(C)=O)(C5C6OC(=O)c5ccccc5)C(C(OC)C13)C4N(C)C2` (stereo not given), the TGI in experiment [1], in [2], in [3], in experiment [5], in [6] and in experiment [7] was above 100 µM each time. In addition, the TGI in experiment [8], in [9], in experiment [10] and in [11] was above 100 µM in each case.
Take `CCOc1ccc(/C=C2\NC(=S)N(/C=C3\C(=O)Oc4ccccc4C3=O)C2=O)cc1`: the TGI stood at 56.3 µM in experiment [1]; 33.7 µM in experiment [2]; 61.9 µM in experiment [3]; 50.7 µM in experiment [6]; 42.3 µM in [7]; 33.6 µM in [8]. Besides, the figures for the TGI in [9], in experiment [10] and in experiment [11] were 38.8 µM, above 100 µM and 37.9 µM, respectively.
For the compound `CCC(=O)/C(=C\I)c1ccccc1`, the TGI in experiment [2] was 6.35 µM; in [3] it was 39.7 µM; in experiment [4], above 100 µM; in [5], 3.23 µM; in experiment [6], 3.29 µM; in experiment [7], 9.34 µM. The values for the TGI in [8], in [9] and in experiment [11] were 3.01 µM, 30.2 µM and 9.77 µM, respectively.
Regarding `C=Cc1nc(C#N)c(N)o1`, the TGI in experiment [2], in [3], in experiment [4], in experiment [5], in [6] and in experiment [7] was above 100 µM throughout. Also, the TGI in [8], in [9] and in [10] was above 100 µM in each case.
For the compound `CNC(=S)NNc1ncnc2c1ncn2-c1ccc(C)cc1`, the TGI in experiment [2], in experiment [3], in experiment [4], in experiment [5], in experiment [6] and in [7] was above 100 µM throughout. Moreover, the TGI in experiment [8], in experiment [9], in [10] and in [11] was above 100 µM in each case.
As for `COC(=O)c1ccccc1C1=C([N+](=O)[O-])C(c2ccccc2)C(C#N)=C(N)O1` (stereo not given), the TGI in [1], in experiment [2], in [3], in experiment [4], in experiment [6] and in [7] was above 100 µM in each case. Also, the TGI in experiment [8] was 95.2 µM; in experiment [9], above 100 µM; in experiment [10], above 100 µM; in experiment [11] it was above 100 µM.

For the origin of these results see PubChem BioAssay (NCI).
